In PMC11350758, “Development of Xanthoangelol-Derived Compounds with Membrane-Disrupting Effects against Gram-Positive Bacteria” (Antibiotics, 2024):
Values after ≈ are worked out from the molar mass of the structure shown. Where two headings read alike, the source gives them in different places.

How the values were obtained:
Assay type in all cases: cell-based
[1] = test system: S. aureus ATCC43300; test: Cell membrane permeabilization, PI uptake assay; settings: 16 μg/mL, at 20 min
Procedure: The cell membrane permeabilization of compound 9h against S. aureus ATCC43300 was assessed by PI uptake assay. PI could only pass through the impaired cell membrane and had been widely used to evaluate the cell membrane permeability. When the cell membranes were disrupted, PI entered into the cell membrane, leading to a significant improvement in fluorescence intensity. Therefore, the degree of membrane damage could be reflected by observing the fluorescence intensity in S. aureus. […] Compared with the control group, the fluorescence intensity (at 20 min) increased approximately 5-fold after the addition of 9h (16 μg/mL).
Mid-log S. aureus ATCC43300 was collected and then washed with PBS three times. Bacterial suspension (1.0 × 10^8 CFU/mL, 150 μL) was added to a black 96-well plate; following this, fluorescent dye PI (10 μM, 50 μL) was added to each well of plates, and they were preincubated in the dark for 30 min. After the incubation, the fluorescence intensity was detected every minute for 6 min using a microplate reader (λex/λem = 535 nm/615 nm). […] The fluorescence intensity was determined similarly for another 14 min. All biological experiments were repeated three times.

[2] = test system: S. aureus ATCC4330; test: microbe, parasite or virus in culture; settings: Staphylococcus aureus, read-out: MBC
Procedure: Due to the presence of various biological enzymes in plasma, natural AMPs are susceptible to enzymatic degradation upon entering the bloods, leading to a loss of their antimicrobial activity. To evaluate the plasma stability of active compound 9h, we conducted a stability assay by determining their MBC (minimum bactericidal concentration) values in plasma and different blood components. […] The observed initial increase in the MBC value, followed by remaining unchanged, could potentially be attributed to the initial binding of compound 9h with plasma proteins, causing a reduction in its activity. Once this binding became saturated, the bactericidal activity of the compound remained stable, further indicating the good stability of compound 9h in plasma.
MBCs of the compounds were tested. Furthermore, MBCs of compounds in 50% plasma, 50% serum, and 50% blood suspension were tested. The MBC value is defined as the concentration at which the colony count is less than 5 after 18 h of incubation at 37 °C. All biological experiments were repeated three times.

[3] = test system: Staphylococcus aureus ATCC25923, erythromycin-susceptible strain; test: MIC, broth microdilution; settings: Staphylococcus aureus ATCC25923; read-out: MIC S. a. 25923
How it was run: (§1)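 Twofold serial dilutions of compound in TSB broth were mixed with an equal volume of bacterial suspension (10^6 CFU/mL) and incubated at 37 °C for 24 h, following CLSI micro broth dilution. Experiments were repeated three times.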

[4] = test system: Staphylococcus epidermidis ATCC12228, erythromycin-susceptible strain; test: MIC, broth microdilution; settings: Staphylococcus epidermidis ATCC12228; read-out: MIC S. e. 12228
How it was run: as §1

[5] = test system: Klebsiella pneumonia ATCC10031; test: MIC, broth microdilution; settings: Klebsiella pneumoniae; Klebsiella pneumonia ATCC10031; read-out: MIC K. p. 10031
How it was run: as §1

[6] = test system: Bacillus subtilis ATCC9372, penicillin-susceptible strain; test: MIC, broth microdilution; settings: Bacillus subtilis ATCC9372; read-out: MIC B. s. 9372
How it was run: as §1

[7] = test system: Escherichia coli ATCC25922, penicillin-susceptible strain; test: MIC, broth microdilution; settings: Escherichia coli ATCC25922; read-out: MIC E. c. 25922
How it was run: as §1

[8] = test system: Acinetobacter baumannii ATCC19606; test: MIC, broth microdilution; settings: Acinetobacter baumannii ATCC19606; read-out: MIC A. b. 19606
How it was run: as §1

[9] = test system: Pseudomonas aeruginosa ATCC27853, penicillin-susceptible strain; test: MIC, broth microdilution; settings: Pseudomonas aeruginosa ATCC27853; read-out: MIC P. a. 27853
How it was run: as §1

[10] = test system: Staphylococcus aureus ATCC31007, penicillin-resistant strain; test: MIC, broth microdilution; settings: Staphylococcus aureus ATCC31007; read-out: MIC S. a. 31007
How it was run: as §1

[11] = test system: Enterococcus faecalis ATCC29212, vancomycin-susceptible strain; test: MIC, broth microdilution; settings: Enterococcus faecalis ATCC29212; read-out: MIC E. f. 29212
How it was run: as §1

[12] = test system: Gram-positive strains tested; test: MIC, summary over the Gram-positive strains tested; settings: read-out: MICs against the Gram-positive strains tested, range over the Gram-positive panel
Procedure: All target derivatives were assessed for their in vitro antibacterial activities using a broth microdilution assay to test their minimum inhibitory concentrations (MICs) against six Gram-positive strains (S. aureus ATCC31007, S. aureus ATCC25923, S. aureus ATCC43300, E. faecalis ATCC29212, B. subtilis ATCC9372, and S. epidermidis ATCC12228) and four Gram-negative strains (A. baumannii ATCC19606, K. pneumonia ATCC10031, E. coli ATCC25922, and P. aeruginosa ATCC27853). These compounds were also evaluated for their hemolytic activities and membrane selectivity by determining their HC50 (the concentration required to lyse 50% of red blood cells) and SI (HC50/MICs) values, respectively, and vancomycin was used as the positive drug.
MICs of the derivatives were determined by the micro broth dilution method according to the American Clinical and Laboratory Standards Institute (CLSI) standards. Briefly, 2-fold serial dilutions of target compounds were prepared in 96-well plates containing TSB broth. An equal volume of bacterial suspension (10^6 CFU/mL) was then pipetted into each well, and the mixture was incubated at 37 °C for 24 h. […] All biological experiments were repeated three times.

[13] = test system: S. aureus ATCC43300; test: DNA leakage study; settings: 16 μg/mL
Procedure: The destruction of bacterial cell membranes usually causes the leakage of macromolecules, including DNA and proteins. To investigate the effect of the compound 9h on the leakage of cytoplasmic contents, we performed DNA and protein leakage assays against S. aureus ATCC43300. The degree of damage to the bacterial cell membrane could be reflected by the concentrations of DNA and protein. The non-membrane-targeted antibiotic ciprofloxacin, membrane-targeted peptide melittin, and PBS were used as controls. […] A similar result were also observed in the leakage of protein with S. aureus (Figure 8C).
Mid-log S. aureus ATCC43300 was collected and resuspended in PBS (1.0 × 10^8 CFU/mL). […] The concentration of the protein was determined according to the method of the BCA assay kit (Thermo Fisher Scientific, Waltham, MA, USA), and the concentration of DNA in the supernatant was tested by a micro-spectrophotometer. All biological experiments were repeated three times.

[14] = test system: Enterococcus faecium ATCC51559, vancomycin-resistant strain; test: MIC, broth microdilution; settings: Enterococcus faecium ATCC51559, vancomycin-resistant; read-out: MIC E. f. 51559
How it was run: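 Broth microdilution per CLSI: 2-fold serial compound dilutions in TSB broth, mixed with an equal volume of bacterial suspension at 10^6 CFU/mL. Incubated 37 °C for 24 h; experiments repeated three times.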

CC(=O)c1c(OCCCNCCCN2CCN(C)CC2)c2c(c3c1OC(C)(CCC=C(C)C)C=C3)OC(C)(CCC=C(C)C)C=C2 (stereo not drawn) [Compound 9h, 1-(2,8-Dimethyl-2,8-bis(4-methylpent-3-en-1-yl)-5-(3-((3-(4-methylpiperazin-1-yl)propyl)amino)propoxy)-2H,8H-pyrano [2,3-f]chromen-6-yl)ethan-1-one]
increase of PI fluorescence intensity vs control group [1]: approximately 5 fold
MBC ([2]; ATCC4330, dissolved in Mueller Hinton broth (MHB)): 16 µg/mL (≈ 25.2 µM)
MBC ([2]; ATCC4330, in 50% blood (Figure 3B)): 32 µg/mL (≈ 50.5 µM)
MBC ([2]; ATCC4330, in 50% plasma (Figure 3B)): 32 µg/mL (≈ 50.5 µM)
MBC ([2]; ATCC4330, in 50% serum (Figure 3B)): 32 µg/mL (≈ 50.5 µM)
MBC ([2]; ATCC4330, treatment with 50% plasma, unchanged after 3 and 6 h preincubation (Figure 3A)): 32 µg/mL (≈ 50.5 µM)
MIC [3]: 2 µg/mL (≈ 3.15 µM)
MIC [4]: 0.5 µg/mL (≈ 0.789 µM)
MIC [5]: 8 µg/mL (≈ 12.6 µM)
MIC [6]: 2 µg/mL (≈ 3.15 µM)
MIC [7]: 4 µg/mL (≈ 6.31 µM)
MIC [8]: 4 µg/mL (≈ 6.31 µM)
MIC [9]: 16 µg/mL (≈ 25.2 µM)
MIC [10]: 2 µg/mL (≈ 3.15 µM)
MIC [11]: 1 µg/mL (≈ 1.58 µM)
MIC [12]: 0.5 to 8 µg/mL (≈ 0.789 to 12.6 µM)
concentration of DNA excreted vs blank control [13]: approximately 5.5 fold
MIC [14]: 4 µg/mL (≈ 6.31 µM)
